{"source": "patent US20210085696A1", "about": "“FORMULATIONS COMPRISING CHELATORS, PERMEATION ENHANCERS AND HYDROXYETHYL CELLULOSE FOR TREATING OPHTHALMIC DISORDERS” (LIVIONEX, Inc., priority 2018, published 2021)", "origin": "cited, not measured here", "settings": "@ 79° F.", "data": [{"smiles": "CS(C)(=O)=O", "note": "[MSM, methylsulfonylmethane]", "values": [{"measurement": "water solubility", "result": 34, "unit": "% w/v"}]}]}
